Data as given in the RepoRT retention time repository (doi:10.1038/s41597-019-0305-1).

Experiment: RP, Waters SunFire C18, 50 × 4.6 mm, 3.5 µm, 0.5 mL/min, estimated dead time 1.1 min; A: water + 0.1% formic acid; B: acetonitrile + 0.1% formic acid; gradient (min/%B) 0/5 7/100 8/100
Details: stereoisomer not certain

| LC retention time | SMILES |
| --- | --- |
| 6 min | COC(=O)C12Oc3ccc(-c4ccc5c(c4O)C(O)=C4C(=O)CC(C)C(O)C4(C(=O)OC)O5)c(O)c3C(O)=C1C(=O)CC(C)C2O (stereo not given) |
| 7.28 min | CC(=O)OCc1c(O)c(C(=O)O)c(C)c2c1OC(=O)c1c(C)cc(O)c(C=O)c1O2 |
| 7.48 min | CCCCCC1=CC(=O)C=C(OC)C12C(=O)Oc1cc(O)c(C(=O)O)c(CCCCC)c12 (stereo not given) |
| 4.03 min | COC1=CC(=O)C(=O)c2cc3oc(C)cc(=O)c3c(OC)c21 |
| 6.25 min | CCC(C)C(NC(=O)c1ccccc1)C(=O)NC(COC(=O)c1ccccc1)C(C)C (stereo not given) |
| 7.27 min | O=C(NC(Cc1ccccc1)C(=O)O)C(=C1OC(=O)C(c2ccccc2)=C1O)c1ccccc1 (stereo not given) |
| 7.07 min | Cc1cc(O)c(C=O)c(O)c1C(=O)O |
| 7.27 min | CC(=O)C1=C(O)C=C2Oc3c(C(C)=O)c(O)c(C)c(O)c3C2(C)C1=O (stereo not given) |
| 5.15 min | Cc1cc(O)cc2oc3cc(O)cc(O)c3c(=O)c12 |
| 4.65 min | Cc1cc(=O)c2c(O)cc(O)c(C)c2o1 |
| 4.33 min | Cc1cc(O)c(C=O)c(O)c1 |
| 7.09 min | CCCCCC(=O)Cc1c(Oc2cc(OC)cc3cc(CCCCC)oc(=O)c23)c(O)cc(O)c1C(=O)O |
| 4.63 min | COC(=O)c1c(C)cc(O)cc1O |
| 4.23 min | COC1=CC(=O)c2c(O)c3c(c(O)c2C1=O)C(O)C(C)OC3=O (stereo not given) |
| 4.9 min | O=C1c2cc(O)cc(O)c2C(=O)c2c(O)cc(CO)cc21 |
| 7.4 min | Cc1cc(O)c2c(c1)oc1cc(O)cc(C)c12 |
| 6.6 min | COc1cc(CCC(C(=O)[O-])[N+](C)(C)C)cc(OC)c1O (stereo not given) |
| 6.99 min | COC1=CC(=O)c2c(OC(C)=O)c3c(c(O)c2C1=O)CC(C)OC3=O (stereo not given) |
| 7.45 min | CCCCCCCCCCCCC(C(=O)O)C(C)C(=O)O (stereo not given) |
| 5.06 min | COc1cc2oc(C)cc(=O)c2c(O)c1COC(=O)C=C(C)CC(=O)O |
